Experimental data published in ChEMBL document CHEMBL4316586, “A comprehensive review of salinomycin derivatives as potent anticancer and anti-CSCs agents” (Eur J Med Chem, 2019).

How the values were obtained:
MCF7 [1] = assay: Antiproliferative activity against human MCF7 cells by SRB assay; assay type: functional, cell-based
LoVo = assay: Antiproliferative activity against human LoVo cells by SRB assay; assay type: functional, cell-based
[2] = Antiproliferative activity against human LoVo/DX cells by SRB assay; assay type: functional, cell-based
JIMT-1 [3] = assay: Antiproliferative activity against human JIMT1 cells by SRB assay; assay type: functional, cell-based
SK-BR-3 = assay: Antiproliferative activity against human SKBR3 cells by SRB assay; assay type: functional, cell-based
MCF-10A = assay: Antiproliferative activity against human MCF10A cells by SRB assay; assay type: cell-based
JIMT-1 [4] = assay: Antiproliferative activity against human JIMT1 cells after 72 hrs by MTT assay; assay type: functional, cell-based; conditions: JIMT-1, 72 h
HCC1937 [5] = assay: Antiproliferative activity against human HCC1937 cells after 72 hrs by MTT assay; assay type: functional, cell-based; conditions: HCC1937, 72 h
4T1 = assay: Antiproliferative activity against mouse 4T1 cells by MTT assay; assay type: functional, cell-based
JIMT-1 [6] = assay: Antiproliferative activity against human JIMT1 cells; assay type: functional, cell-based
MCF7 [7] = assay: Antiproliferative activity against human MCF7 cells; assay type: functional, cell-based
HCC1937 [8] = assay: Antiproliferative activity against human HCC1937 cells; assay type: functional, cell-based
HGC-27 [9] = assay: Antiproliferative activity against human HGC27 cells by MTT assay; assay type: functional, cell-based
MDA-MB-231 [10] = assay: Antiproliferative activity against human MDA-MB-231 cells by MTT assay; assay type: functional, cell-based
JIMT-1 [11] = assay: Antiproliferative activity against human JIMT1 cells by MTT assay; assay type: functional, cell-based
MCF7 [12] = assay: Antiproliferative activity against human MCF7 cells by MTT assay; assay type: functional, cell-based
U-87 MG = assay: Antiproliferative activity against human U87 cells by MTT assay; assay type: functional, cell-based, U-87MG ATCC
HeLa = assay: Antiproliferative activity against human HeLa cells by MTT assay; assay type: functional, cell-based
Caco-2 = assay: Antiproliferative activity against human Caco2 cells by MTT assay; assay type: functional, cell-based
[13] = Antiproliferative activity against HMLER cells by MTT assay Breast cancer stem cell; assay type: functional, cell-based; conditions: Homo sapiens
HT-29 = assay: Antiproliferative activity against human HT-29 cells after 48 hrs by MTT assay; assay type: functional, cell-based; conditions: HT-29, 48 h
HGC-27 [14] = assay: Antiproliferative activity against human HGC27 cells after 48 hrs by MTT assay; assay type: functional, cell-based; conditions: HGC-27, 48 h
MDA-MB-231 [15] = assay: Antiproliferative activity against human MDA-MB-231 cells after 48 hrs by MTT assay; assay type: functional, cell-based; conditions: MDA-MB-231, 48 h
MDA-MB-231 [16] = assay: Antiproliferative activity against human MDA-MB-231 cells by SRB assay; assay type: functional, cell-based

## CC[C@@H](C(=O)[C@@H](C)[C@@H](O)[C@H](C)[C@@H]1O[C@@H]([C@@H](CC)C(=O)O)CC[C@@H]1C)[C@H]1O[C@]2(C=C[C@@H](OC(=O)c3ccc(C(=O)O[C@@H]4C=C[C@]5(O[C@H]([C@@H](CC)C(=O)[C@@H](C)[C@@H](O)[C@H](C)[C@@H]6O[C@@H]([C@@H](CC)C(=O)O)CC[C@@H]6C)[C@@H](C)C[C@H]5C)O[C@@]45CC[C@@](C)([C@H]4CC[C@](O)(CC)[C@H](C)O4)O5)cc3)[C@]3(CC[C@@](C)([C@H]4CC[C@](O)(CC)[C@H](C)O4)O3)O2)[C@H](C)C[C@@H]1C
MCF7 [1]
  IC50: 1800 nM
LoVo
  IC50: 1200 nM
[2]
  IC50: 2800 nM
JIMT-1 [3]
  IC50: 2400 nM
SK-BR-3
  IC50: 1000 nM
MCF-10A
  IC50: 21000 nM

## CC[C@@H](C(=O)[C@@H](C)[C@@H](O)[C@H](C)[C@@H]1O[C@@H]([C@@H](CC)C(=O)O)CC[C@@H]1C)[C@H]1O[C@]2(C=CC[C@]3(CC[C@@](C)([C@H]4CC[C@](O)(CC)[C@H](C)O4)O3)O2)[C@H](C)C[C@@H]1C
JIMT-1 [4]
  IC50: 1730 nM
HCC1937 [5]
  IC50: > 10000 nM

## CC[C@@H](C(=O)[C@@H](C)[C@@H](O)[C@H](C)[C@@H]1O[C@@H]([C@@H](CC)C(=O)O)CC[C@@H]1C)[C@H]1O[C@]2(C=C[C@H](n3cc(-c4ccc(Br)cc4)nn3)[C@]3(CC[C@@](C)([C@H]4CC[C@](O)(CC)[C@H](C)O4)O3)O2)[C@H](C)C[C@@H]1C
4T1
  IC50: 3690 nM

## CC[C@@H](C(=O)[C@@H](C)[C@@H](O)[C@H](C)[C@@H]1O[C@@H]([C@@H](CC)C(=O)O)CC[C@@H]1C)[C@H]1O[C@]2(C=C[C@H](n3cc(-c4ccccc4C(=O)OC)nn3)[C@]3(CC[C@@](C)([C@H]4CC[C@](O)(CC)[C@H](C)O4)O3)O2)[C@H](C)C[C@@H]1C
4T1
  IC50: 3830 nM

## CC[C@@H](C(=O)[C@@H](C)[C@@H](O)[C@H](C)[C@@H]1O[C@@H]([C@@H](CC)C(=O)O)CC[C@@H]1C)[C@H]1O[C@]2(CCC(=O)[C@]3(CC[C@@](C)([C@H]4CC[C@](O)(CC)[C@H](C)O4)O3)O2)[C@H](C)C[C@@H]1C
JIMT-1 [6]
  IC50: 2680 nM
MCF7 [7]
  IC50: 3110 nM

## CC[C@@H](C(=O)[C@@H](C)[C@@H](O)[C@H](C)[C@@H]1O[C@@H]([C@@H](CC)C(=O)O)CC[C@@H]1C)[C@H]1O[C@]2(CCC[C@]3(CC[C@@](C)([C@H]4CC[C@](O)(CC)[C@H](C)O4)O3)O2)[C@H](C)C[C@@H]1C
JIMT-1 [4]
  IC50: 2080 nM
HCC1937 [5]
  IC50: > 10000 nM

## CC[C@@H](C(=O)[C@@H](C)[C@@H](O)[C@H](C)[C@@H]1O[C@@H]([C@@H](CC)C(=O)O)CC[C@@H]1C)[C@H]1O[C@]2(CC[C@@H](O)[C@]3(CC[C@@](C)([C@H]4CC[C@](O)(CC)[C@H](C)O4)O3)O2)[C@H](C)C[C@@H]1C
JIMT-1 [6]
  IC50: 1000 nM
MCF7 [7]
  IC50: 890 nM

## CC[C@@H](C(=O)[C@@H](C)[C@@H](O)[C@H](C)[C@@H]1O[C@@H]([C@@H](CC)C(=O)OCC[Si](C)(C)C)CC[C@@H]1C)[C@H]1O[C@]2(C=C[C@@H](O)[C@]3(CC[C@@](C)([C@H]4CC[C@](O)(CC)[C@H](C)O4)O3)O2)[C@H](C)C[C@@H]1C
HCC1937 [8]
  IC50: 4360 nM

## CC[C@@H]([C@H](O)[C@@H](C)[C@@H](O)[C@H](C)[C@@H]1O[C@@H]([C@@H](CC)C(=O)O)CC[C@@H]1C)[C@H]1O[C@]2(C=C[C@@H](O)[C@]3(CC[C@@](C)([C@H]4CC[C@](O)(CC)[C@H](C)O4)O3)O2)[C@H](C)C[C@@H]1C
JIMT-1 [6]
  IC50: 15600 nM
MCF7 [7]
  IC50: 12500 nM

## CC[C@@H](C(=O)[C@@H](C)[C@@H](O)[C@H](C)[C@@H]1O[C@@H]([C@@H](CC)C(=O)O)CC[C@@H]1C)[C@H]1O[C@]2(C=C[C@@H](O)[C@]3(CC[C@@](C)([C@H]4CC[C@](O)(CC)[C@H](C)O4)O3)O2)[C@H](C)C[C@@H]1C [SALINOMYCIN]
HGC-27 [9]
  IC50: 2570 nM
MDA-MB-231 [10]
  IC50: 6910 nM
JIMT-1 [11]
  IC50: 520 nM
MCF7 [12]
  IC50: 590 nM
U-87 MG
  IC50: 38700 nM
HeLa
  IC50: 320 nM
Caco-2
  IC50: 13000 nM
[13]
  IC50: 100 nM
JIMT-1 [6]
  IC50: 520 nM
HT-29
  IC50: 3210 nM
HGC-27 [14]
  IC50: 8180 nM
MDA-MB-231 [15]
  IC50: > 10000 nM
MDA-MB-231 [16]
  IC50: 6420 nM
[2]
  IC50: 690 nM
